“Also recorded” adds a separate entry of the source.
Experiments:
[1] = test system: Aspergillus niger (ATCC #16404); assay: Preservative effectiveness test, single challenge; type: cell-based
Source text: (§1) To test for preservative effectiveness, aliquots of vaccine were inoculated with the following organisms:
(§2) Thirty milliliters (ml) of each vaccine formulation with and without Thimerosal or 2-PE at indicated concentrations or saline containing Thimerosal at 0.02% were inoculated in triplicates with a suspension of each test organism to achieve an inoculum density of approximately 10^5 to 10^6 CFU/ml at time 0 (CFU=colony forming units). […] Samples were mixed to ensure even distribution of challenged organisms. Another 30 ml of vaccine in triplicate (with and without preservative) were used as a negative control and spiked with the culture media alone to evaluate the inherent contamination that might be present in the sample or media. Each of the three series of vaccines, and positive and negative controls, was then separately incubated at 20 to 25° C. Aliquots (1 ml) of the challenged samples and controls (or their appropriate serial ten fold dilutions) were enumerated by plate count in duplicates at time 0 and at intervals of 6 hours, 24 hours, 7 days, 14 days and 28 days post-inoculation.
(§3) USP 29 NF 24 Supplement 2 (USP) requires that, after an inoculation of bacterial micro-organism(s), there is at least 1.0 log reduction from the initial calculated count (i.e., at time of inoculation) at 7 days, at least 3.0 log reduction at 14 days from the previous value measured and no increase at 28 days from the previous measured value. For yeast and fungi, the USP requirement is for there to be no increase from the time of inoculation to 7, 14 and 28 days.
(§4) EP requirements are more stringent. EP 5th Edition 5.6 (5.1.3) requirements for parenteral and ophthalmic preparations has two components: Category A and Category B. Category A (EP-A) requires, for bacteria, at least 2.0 log reduction from the initial calculated count at 6 hours after inoculation, at least 3.0 log reduction at 24 hours from the previous measured value, and no recovery at 28 days. Category B (EP-B) requires, for bacteria, at least 1.0 log reduction at 24 hours from the initial calculated count, at least 3.0 log reduction at 7 days from the previous value measured and not more than 0.5 log increase at 28 days from the previous value measured (i.e., no increase). For yeast and fungi, Category A requires at least 2.0 log reduction at 7 days and no increase from the previous value measured at 28 days, and Category B requires at least 1.0 log reduction at 14 days and no increase from the previous value measured at 28 days.
(§5) Plates containing <300 CFU for bacteria or <100 CFU for yeast or mold were used during enumeration. For single challenge studies, arithmetic average count of all surviving micro-organisms in triplicate and on duplicate plates (6 values per time point) plus their diluted samples were measured and normalized as CFU/ml. The results are expressed as mean log10 CFU/ml reduction (compared to time 0). In this case, the count of surviving micro-organisms is evaluated at time 0 as the baseline and compared to incubation time of 6 hours, 24 hours, 7 days, 14 days and 28 days.

[2] = test system: Pseudomonas aeruginosa (ATCC #9027); assay: Preservative effectiveness test, single challenge; type: cell-based; conditions: Prev(e)nar 13 formulation, 20 to 25° C.
Source text: as §1, §2, §3, §4, §5

[3] = test system: E. coli; assay: Preservative effectiveness test, single challenge; type: cell-based; conditions: Prev(e)nar 13 formulation, 20 to 25° C.
Source text: as §1, §2, §3, §4, §5

[4] = 2-PE concentration on storage (Reversed-Phase HPLC assay)
Experimental: 2-EP concentration may be measured with a Reversed-Phase HPLC assay, also as described in Example 3. A Reversed-Phase HPLC assay may be performed in the following manner: Samples are vortexed and diluted 1:10 into 5 mM Succinate buffer in saline, centrifuged and diluted again 1:10 into 5 mM succinate buffer in saline (final dilution of the Test Sample is 1:100). The sample is then assayed utilizing the Agilent Eclipse XDB-C18 HPLC column and a linear gradient of water and acetonitrile containing trifluoroacetic acid. The quantification of the preservative is then compared to a standard curve.
2-PE concentration was measured with a Reversed-Phase HPLC assay. Samples were vortexed and diluted 1:10 into 5 mM Succinate buffer in saline, centrifuged and diluted again 1:10 into 5 mM succinate buffer in saline. Final dilution of the Test Sample was 1:100. The assay utilized the Agilent Eclipse XDB-C18 HPLC column and a linear gradient of water and acetonitrile containing trifluoroacetic acid. 2-PE in 13vPnC Multi-Dose Vaccine samples was quantified against a 2-PE standard curve.

[5] = test system: E. coli
Experimental: To represent the worst reasonable case of contamination that may occur in practice during the repeated use of a multi-dose presentation, WHO requires safety testing with deliberate exposure to multiple contamination events using bacterial strains, Pseudomonas Aeruginosa (“PA”), Staphylococcus Aureus (“SA”), Escherichia coli (“EC”) and Bacillus subtilis (“BA”). Formulations are spiked with 5×10^3 CFU/ml of each organism at times 0, 6 hours, 24 hours, 7 days and 14 days after initial challenge and stored either at 2-8° C. or at 22-24° C. to mimic the potential storage conditions in practice.
To assess the appropriateness of WHO multi-dose Open Vial Policy of vaccines in multiple immunization sessions for up to maximum of four weeks, experimental design provided by WHO was implemented. In this study, the effectiveness of Thimerosal was evaluated at the concentration that is present in the majority of U.S. licensed vaccines (0.01%), as well as at a higher concentration of 0.02%. To represent the worst reasonable case of contamination that may occur in practice during the repeated use of a multi-dose presentation, and to test WHO requirements, Prev(e)nar 13 vaccine formulations with 0.01 or 0.02% Thimerosal or with 5.0 mg/dose of 2-PE were deliberately exposed to multiple contamination events using WHO recommended bacterial strains, P. aeruginosa, S. aureus, E. coli and B. subtilis. […]

[6] = 5 mg/dose 2-PE in Prev(e)nar 13, single challenge
[7] = Prev(e)nar 13 formulation, single challenge, 20 to 25° C.

Row | SMILES | effectiveness as a preservative against A. niger compared with Thimerosal [1, 6] | rate of decline of A. niger contamination compared to Thimerosal [1, 6] | EP (EP-B) vaccine safety requirements, A. niger [1, 7] | USP vaccine safety requirements, A. niger [1, 7] | EP (EP-B) vaccine safety requirements, P. aeruginosa [2] | USP vaccine safety requirements, P. aeruginosa [2] | EP (EP-B) vaccine safety requirements, E. coli [3] | USP vaccine safety requirements, E. coli [3] | concentration of 2-PE in the formulation on storage ([4]; Prev(e)nar 13 formulation stored at 2-8° C. (two and a half years)) | concentration of 2-PE in the formulation on storage ([4]; Prev(e)nar 13 formulation stored at 37° C. (a month)) | reduction of E. coli ([5]; 0.01% Thimerosal in Prev(e)nar 13, multiple challenges, particularly at 2-8° C.) | rate of decay of E. coli in saline formulation versus vaccine formulation ([5]; 0.02% Thimerosal, multiple challenges)
1 | OCCOc1ccccc1 [2-PE, 2-phenoxyethanol] | less effective | slower | Fails | Meets | Fails | Meets | Fails | Meets | similarly stable; also recorded: did not change | similarly stable; also recorded: did not change | – | –
2 | C[CH2][Hg][S]c1ccccc1C(=O)[O-].[Na+] [Thimerosal] | – | – | – | – | – | – | – | – | – | – | slow | more pronounced

Reference: US9095567B2, “Vaccine formulations” (priority 2010, dated 2015)
